From patent publication US20240377321A1, “HOLOGRAPHIC IMAGE PROCESSING AND DATA EXTRACTION” (Accelerate Diagnostics, Inc., priority 2023, published 2024) come the findings set out here.

This assay relates to Klebsiella oxytoca (CDCJI 380). The assay can be described thus: holographic monitoring of cellular growth of Klebsiella oxytoca incubated with antibiotic. Type of assay: cell-based. To be noted: 0.5 mg/mL Meropenem, about eight hours incubation. As for the experimental part: FIGS. 18A-18E depict a sequence of photographs A-E of a sample volume 18, with FIG. 18A depicting the earliest photograph, and FIG. 18E depicting the latest photograph. The photographs A-E show cellular growth of Klebsiella oxytoca (CDCJI 380), which was incubated with 0.5 mg/mL of the antibiotic Meropenem over a period of about eight hours. The photographs A-E provide an example of a complex response of microorganisms to an antibiotic. A holograph 32 of the sample volume 18 was captured every ten minutes during the incubation period. FIG. 19 depicts a graph including a plot 170 of a cellular growth indicator (e.g., the holographic intensity variance) extracted from the full holograph 32, and a plot 172 of the cellular growth indicator extracted from the set of pixels comprising tile six of the holograph 32. The times corresponding to the photographs A-E of FIGS. 18A-18E are indicted by correspondingly labeled arrows in the graph of FIG. 19. […] The slight rise in the cellular growth indicator after seven hours is the earliest indication of a potential resurgence of cell growth, e.g., due to the microorganism becoming resistant.
The divergence of tile plot 172 from the full-holograph plot 170 begins at about the three and half hour mark. This is due to the response of the microorganism to the antibiotic in the localized region of the sample volume corresponding to tile six. This region of the sample volume contains a subpopulation of bacterial cells that appear to have become resistant to the antibiotic, and have begun to grow in colony clusters. This example of delayed resistance to an antibiotic is clinically relevant, and recognizing the resistance early in a test can lead to timely administration of the correct antibiotic at the right dose to treat the patient. From an algorithmic perspective, systematically dividing holographs into portions (e.g., tiles) and calculating the cellular growth indicator for each portion can be used to identify events or hot spots in the growth or death of microorganisms.

The structures appear in SMILES notation.

Take `C[C@@H](O)[C@H]1C(=O)N2C(C(=O)O)=C(S[C@@H]3CN[C@H](C(=O)N(C)C)C3)[C@H](C)[C@H]12` [Meropenem]: for the setting “full-holograph plot 170”, the “cellular growth indicator (e.g., holographic intensity variance) over time, full holograph” value is “decreases after three and a half hours of incubation, followed by a slight increase after seven hours of incubation”. Further, where the note is “holograph every ten minutes, full-holograph plot 170”, the “response of microorganism to antibiotic based on full-holograph plot” value is reported as “appears to be sensitive to the dose of antibiotic”. The “cellular growth indicator over time, tile six of the holograph” value (tile plot 172 (tile six)) is “resurgent growth due to emerging antibiotic resistance at about four and a half hours”.
